# Measured values reported in article PMC11993918, “Flipped binding modes for the same agonist in closely related neuropeptide-gated ion channels” (Biophysical Journal, 2025).
# Values joined by “and” are separate entries in the source; they are usually repeats but may differ in a detail not shown here. Equal values may be shown once. “Also recorded” adds a separate entry of the source. Read-outs that look alike come from different tables or passages of the source. No end group written: not given here.
# Key:
# [1] = biological target: Malacoceros fuliginosus FaNaC1, wild type (Malacoceros fuliginosus)
# [2] = tested on: M. fuliginosus FaNaC1; assay: Two-electrode voltage clamp of oocytes expressing M. fuliginosus FaNaC1; type: cell-based, Malacoceros fuliginosus; settings: for peptide potency/activity compared to FMRFa (in words): Fig. 2 A
# Description: (§1) A. kurodai FaNaC (NCBI GenBank: AB206707.1) and M. fuliginosus FaNaC1 (NCBI GenBank: ON156825.1) cDNAs in tailored pSP64 plasmid vectors including Xenopus laevis UTRs and poly(A) sequences have been described at length previously ([9],[16]). A. kurodai FaNaC F188Y, F188tag (amber stop codon), F453Y, and F453tag mutants were generated by site-directed mutagenesis as detailed in ([17]) with custom primers (Merck) and PCR with Phusion High-Fidelity DNA polymerase (Thermo Fisher). All coding sequences were confirmed by Sanger sequencing (Genewiz). Plasmid DNA was linearized by digesting with EcoRI (Thermo Fisher) and purified with the DNA Clean & Concentrator Kit (Zymo). mRNA was then transcribed using the mMESSAGE mMACHINE SP6 Transcription Kit (Thermo Fisher) and purified with the RNeasy Mini Kit (Qiagen).
# (§2) X. laevis frog oocytes were shipped from Ecocyte Bioscience, Germany, and stored at 18°C in 50% Leibovitz’s L-15 medium (Gibco) supplemented with additional 0.25 mg/mL gentamicin, 1 mM L-glutamine, and 15 mM HEPES, pH 7.6.
# (§3) For wild-type (WT) and conventional mutant channels, oocytes were injected with 40 nL of 120 ng/μL FaNaC mRNA via glass micropipettes backfilled with mineral oil, using a Nanoliter2010 injector (World Precision Instruments). For the expression of noncanonical mutant channels, aminoacylated tRNA was first resuspended in 2 μL of water and deprotected by 5 min in UV light via a fan-cooled coil of 365-nm realUV LED strip lights (Waveform Lighting). Deprotected aminoacylated tRNA was then mixed 2:1 with 700 ng/μL UAG mutant FaNaC mRNA, and 40 nL of this mix was injected into oocytes.
# (§4) Two-electrode voltage clamp experiments were performed 24–36 h after injection. The oocyte was placed in an RC-3Z bath (Warner Instruments) and perfused continuously with ND96 solution (NaCl 96 mM, KCl 2 mM, CaCl2 1.8 mM, MgCl2 1 mM, HEPES 5 mM, pH 7.5 with NaOH). In experiments without Ca^2+, CaCl2 was replaced with BaCl2, and oocytes were injected with 40 nL of water or 25 mM EGTA 10–45 min before recording. In experiments probing increased Ca^2+ concentrations, extracellular solutions contained NaCl 140 mM, HEPES 10 mM, CaCl2 1 mM, pH 7.5 with NaOH; or NMDG-Cl 126.5 mM, HEPES 10 mM, CaCl2 10 mM, pH 7.5 with NaOH (leaving a small amount of Na^+ in the final solution), based on previous work ([21]). ND96 (or the latter solutions) alone or containing peptides was rapidly exchanged via a VCS-8 pinch-valve control perfusion system (Warner Instruments). […] Oocytes were clamped at −80 mV for all experiments with an Oocyte Clamp OC-725D amplifier (Warner Instruments) and Axon Digidata 1550B digitizer ([…]). Data were recorded at 1000 Hz and filtered at 100–200 Hz. 50 Hz noise was eliminated with a Hum Bug (Digitimer). In measuring reversal potentials in normal and high Ca^2+ solutions, 150 ms voltage ramps from −80 mV to 80 mV were applied continuously, before and during FMRFa application. The resulting “current ramp” in the absence of FMRFa was subtracted from that during peak FMRFa-gated current to plot the FMRFa-induced current-voltage relationship.
# (§5) Current amplitude was measured in Clampfit 11.1 (Molecular Devices), and subsequent data analyses were performed in Prism v9 (GraphPad Software). For peptide concentration-response data, peak current amplitude was normalized to maximum, plotted against peptide concentration, and fitted with four-parameter nonlinear regression (Prism v9) for each oocyte. These were averaged to give the reported means ± SE in the main text. For display in figures, a single fit to the average normalized responses (±SE) is shown. […] Therefore, in most M. fuliginosus/LMRFa experiments only, just two LMRFa applications were used: one test concentration and one 10 μM for normalization. This yielded n = 3 oocytes for responses to different concentrations, against which a single curve was fitted and half-maximal effective concentration (EC50) was calculated. […]
# [3] = tested on: A. kurodai FaNaC; assay: Two-electrode voltage clamp of oocytes expressing A. kurodai FaNaC; type: cell-based, Aplysia kurodai; settings: for peptide potency/activity compared to FMRFa (in words): Fig. 2 A
# Description: as §1, §2, §3, §4, §5
# [4] = tested on: clade 1 FaNaCs; settings: cited from earlier work; for sensitivity to native peptides (in words): extant clade 1 FaNaCs ref 9,27
# [5] = tested on: A. kurodai FaNaC F453Cha; assay: Two-electrode voltage clamp, nonsense suppression mutant F453Cha; type: cell-based, Aplysia kurodai
# Description: as §1
# (§6) Noncanonical amino acids were incorporated into positions F188 and F453 of A. kurodai FaNaC via a nonsense suppression approach using an amber stop codon (TAG/UAG) and modified Tetrahymena thermophila Gln73 tRNA (THG73) ([19],[20]). […]
# (§7) Two-electrode voltage clamp experiments were performed 24–36 h after injection. […] Data were recorded at 1000 Hz and filtered at 100–200 Hz. […]
# (§8) Current amplitude was measured in Clampfit 11.1 (Molecular Devices), and subsequent data analyses were performed in Prism v9 (GraphPad Software). […]
# [6] = tested on: A. kurodai FaNaC F453Y; assay: Two-electrode voltage clamp, conventional mutant F453Y; type: cell-based, Aplysia kurodai
# Description: as §1, with “(Qiagen). […]” for “(Qiagen).”
# as §7
# (§9) Current amplitude was measured in Clampfit 11.1 (Molecular Devices), and subsequent data analyses were performed in Prism v9 (GraphPad Software). […] This yielded n = 3 oocytes for responses to different concentrations, against which a single curve was fitted and half-maximal effective concentration (EC50) was calculated. […]
# [7] = tested on: clade 2 FaNaCs; settings: extant clade 2 FaNaCs ref 9,23,27; cited from earlier work
# [8] = tested on: A. kurodai FaNaC F453hPhe; assay: Two-electrode voltage clamp, nonsense suppression mutant F453hPhe; type: cell-based, Aplysia kurodai
# Description: as §1, §6, §7, §8
# [9] = tested on: M. fuliginosus FaNaC1 position α3-F129 UAG mutant; assay: Two-electrode voltage clamp, nonsense suppression at F129 (UAG mutant mRNA and phenylalaninylated tRNA); type: cell-based, Malacoceros fuliginosus; settings: UAG mutant mRNA and phenylalaninylated tRNA (not shown)
# [10] = tested on: A. kurodai FaNaC F453Phe; assay: Two-electrode voltage clamp, nonsense suppression mutant F453Phe; type: cell-based, Aplysia kurodai
# Description: as §1, §6, §7, §8
# [11] = tested on: A. kurodai FaNaC F188Y; assay: Two-electrode voltage clamp, conventional mutant F188Y; type: cell-based, Aplysia kurodai
# Description: as §1, with “(Qiagen). […]” for “(Qiagen).”
# as §7, §9
# [12] = tested on: Helix aspersa FaNaC; parameters: method as in PMID 9343851; settings: stated as shared by A. kurodai FaNaC and H. aspersa FaNaC ref 27; cited from earlier work
# [13] = tested on: A. kurodai FaNaC F188Cha; assay: Two-electrode voltage clamp, nonsense suppression mutant F188Cha; type: cell-based, Aplysia kurodai; settings: concentrations up to 100 μM
# Description: as §1, §6, §7, §8
# [14] = tested on: A. kurodai FaNaC F188Phe; assay: Two-electrode voltage clamp, nonsense suppression mutant F188Phe; type: cell-based, Aplysia kurodai
# Description: as §1, §6, §7, §8
# [15] = tested on: A. kurodai FaNaC F188hPhe; assay: Two-electrode voltage clamp, nonsense suppression mutant F188hPhe; type: cell-based, Aplysia kurodai; settings: concentrations up to 100 μM
# Description: as §1, §6, §7, §8
# [16] = tested on: M. fuliginosus FaNaC1 F129 A/L/Q mutants; parameters: method as in PMID 38337033; settings: conventional F129 A/L/Q mutants ref 15; cited from earlier work
# [17] = biological target: Aplysia kurodai FMRFa-gated sodium channel (FaNaC), wild type (Aplysia kurodai)
# [18] = biological target: Malacoceros fuliginosus FaNaC1, wild type (Malacoceros fuliginosus); remark: listed apart in the source
# [19] = X. laevis oocytes, -80 mV, mean ± SE
molecule,measurement,setting,value
(F3-Phe)MRFa (peptide),"EC50 of current activation, two-electrode voltage clamp, X. laevis oocytes",[1],0.011 µM
"AMRFa: synthetic FMRFa analog, F1 replaced with smaller hydrophobic side chain (A) (AMRF-NH2)",peptide potency/activity compared to FMRFa (in words),[2]; X. laevis oocytes,similarly to FMRFa
same,peptide potency/activity compared to FMRFa (in words),[3]; X. laevis oocytes,activated no current
Ac-FMRFa: FMRFa with N-terminal acetylation,peptide potency/activity compared to FMRFa (in words),[2]; X. laevis oocytes,increased potency
same,peptide potency/activity compared to FMRFa (in words),[3]; X. laevis oocytes,little effect
"FKRFa: FMRFa analog, M2 replaced with lysine (FKRF-NH2)",peptide potency/activity compared to FMRFa (in words),[2]; X. laevis oocytes,no significant effect on potency
same,peptide potency/activity compared to FMRFa (in words),[3]; X. laevis oocytes,no activity
"FMKFa: FMRFa analog, R3 replaced with lysine; also a native peptide (FMKF-NH2)",sensitivity to native peptides (in words),[4],sensitive
same,activation by peptide (in words),"[4]; various mollusk FaNaCs ref 7,9",activated
"FMQFa: FMRFa analog, R3 replaced with glutamine (FMQF-NH2)",currents at 100 μM peptide,[3]; 100 μM,no currents
same,peptide potency/activity compared to FMRFa (in words),[3]; X. laevis oocytes,total reduction in potency
"FMRAa: FMRFa analog, F4 replaced with alanine (FMRA-NH2)",peptide potency/activity compared to FMRFa (in words),[2]; X. laevis oocytes,abolished peptide potency completely
FMRF-OMe: FMRF with C-terminal O-methylester,peptide potency/activity compared to FMRFa (in words),[2]; X. laevis oocytes,drastically reduced activation
"FMRVa: FMRFa analog, F4 replaced with valine (FMRV-NH2)",peptide potency/activity compared to FMRFa (in words),[2]; X. laevis oocytes,did not significantly affect peptide potency
"FVRFa: FMRFa analog, M2 replaced with valine (FVRF-NH2)",peptide potency/activity compared to FMRFa (in words),[2]; X. laevis oocytes,no significant effect on potency
same,peptide potency/activity compared to FMRFa (in words),[3]; X. laevis oocytes,significantly less potent than FMRFa
H-Phe-Met-Arg-Phe-NH2 [FMRFa],EC50,[2]; [19],0.35 ± 0.06 µM
same,FMRFa sensitivity (in words),[5],relatively little effect on FMRFa sensitivity
same,EC50,[3]; [19],5.48 µM and 5.5 µM
same,FMRFa sensitivity (in words),[6],abolished FMRFa sensitivity
same,binding of native peptides (in words),[7],bind
same,FMRFa sensitivity (in words),[8],relatively little effect on FMRFa sensitivity
same,FMRFa-gated currents (in words),[9],no FMRFa-gated currents
same,sensitivity to native peptides (in words),[4],sensitive
same,FMRFa potency compared to regular WT (in words),[10],decreased FMRFa potency
same,FMRFa activation (in words),[11],activated by FMRFa at micromolar concentrations
same,EC50,[12],3 to 5 µM
same,response to FMRFa (in words),[13],little or no response
same,FMRFa activation/potency (in words),[14],decreased FMRFa potency; also recorded: activated by FMRFa at micromolar concentrations
same,response to FMRFa (in words),[15],little or no response
same,sensitivity to FMRFa (in words),[16],reduced sensitivity to FMRFa
"LMRFa: synthetic FMRFa analog, F1 replaced with smaller hydrophobic side chain (L) (LMRF-NH2)",deactivation after peptide application,[2],especially slow
same,peptide potency/activity compared to FMRFa (in words),[2]; X. laevis oocytes,similarly to FMRFa
same,peptide potency/activity compared to FMRFa (in words),[3]; X. laevis oocytes,activated no current
SGFMRFa: FMRFa with N-terminal serine-glycine insertion (SGFMRF-NH2),peptide potency/activity compared to FMRFa (in words),[2]; X. laevis oocytes,no effect
same,peptide potency/activity compared to FMRFa (in words),[3]; X. laevis oocytes,abolished activity
H-FMRF-NH2 [H-Phe-Met-Arg-Phe-NH2 (FMRFamide)],"EC50 of current activation, two-electrode voltage clamp, X. laevis oocytes",[17],5.48 µM
same,"EC50 of current activation, two-electrode voltage clamp, X. laevis oocytes",[18],0.35 µM
